Here are results for nine compounds from ChEMBL document CHEMBL1154843, “Nakijiquinones J--R, sesquiterpenoid quinones with an amine residue from okinawan marine sponges” (J Nat Prod, 2010).

Assay [1] addresses Receptor tyrosine-protein kinase erbB-2 (Homo sapiens) (UniProt P04626). The assay is described as follows: Inhibition of HER2 at 1 mM.
Assay [2] addresses Epidermal growth factor receptor (Homo sapiens) (UniProt P00533). The assay is described as follows: Inhibition of EGFR at 1 mM.

The source made the active and inactive calls. No cut-off for these calls is given here. Some results are limits rather than exact numbers.

Chain of Epidermal growth factor receptor (Homo sapiens) (P00533 whole entry): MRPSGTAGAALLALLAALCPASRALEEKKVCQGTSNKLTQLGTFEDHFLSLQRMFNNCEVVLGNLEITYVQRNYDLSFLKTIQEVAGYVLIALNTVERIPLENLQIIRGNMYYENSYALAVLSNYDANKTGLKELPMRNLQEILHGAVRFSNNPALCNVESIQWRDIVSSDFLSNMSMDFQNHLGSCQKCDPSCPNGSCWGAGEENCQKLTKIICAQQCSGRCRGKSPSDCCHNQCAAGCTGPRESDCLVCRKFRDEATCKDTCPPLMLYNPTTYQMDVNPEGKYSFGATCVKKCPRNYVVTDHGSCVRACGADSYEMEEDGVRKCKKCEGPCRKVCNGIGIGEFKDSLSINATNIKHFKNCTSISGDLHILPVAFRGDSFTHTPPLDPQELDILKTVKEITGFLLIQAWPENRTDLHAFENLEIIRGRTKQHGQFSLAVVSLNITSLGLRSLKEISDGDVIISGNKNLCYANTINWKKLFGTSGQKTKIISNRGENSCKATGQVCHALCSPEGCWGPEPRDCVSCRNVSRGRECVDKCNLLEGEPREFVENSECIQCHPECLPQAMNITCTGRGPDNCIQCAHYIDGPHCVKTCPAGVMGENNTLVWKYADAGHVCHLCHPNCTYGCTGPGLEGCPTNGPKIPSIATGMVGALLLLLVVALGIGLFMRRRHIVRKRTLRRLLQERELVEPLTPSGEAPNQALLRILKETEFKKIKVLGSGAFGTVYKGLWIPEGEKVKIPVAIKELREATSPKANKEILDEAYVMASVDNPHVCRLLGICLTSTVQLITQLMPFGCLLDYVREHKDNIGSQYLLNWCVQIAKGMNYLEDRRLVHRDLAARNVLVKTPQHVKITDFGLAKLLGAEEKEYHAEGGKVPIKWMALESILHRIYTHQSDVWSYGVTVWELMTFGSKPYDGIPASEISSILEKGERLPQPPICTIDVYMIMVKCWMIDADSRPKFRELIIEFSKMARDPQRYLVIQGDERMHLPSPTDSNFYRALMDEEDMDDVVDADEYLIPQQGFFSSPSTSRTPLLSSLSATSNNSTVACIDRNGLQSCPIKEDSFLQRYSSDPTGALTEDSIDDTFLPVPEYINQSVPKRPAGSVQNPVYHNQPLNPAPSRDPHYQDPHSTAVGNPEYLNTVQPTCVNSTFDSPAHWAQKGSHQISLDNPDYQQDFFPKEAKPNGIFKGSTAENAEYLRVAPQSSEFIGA
Chain of Receptor tyrosine-protein kinase erbB-2 (Homo sapiens) (P04626 whole entry): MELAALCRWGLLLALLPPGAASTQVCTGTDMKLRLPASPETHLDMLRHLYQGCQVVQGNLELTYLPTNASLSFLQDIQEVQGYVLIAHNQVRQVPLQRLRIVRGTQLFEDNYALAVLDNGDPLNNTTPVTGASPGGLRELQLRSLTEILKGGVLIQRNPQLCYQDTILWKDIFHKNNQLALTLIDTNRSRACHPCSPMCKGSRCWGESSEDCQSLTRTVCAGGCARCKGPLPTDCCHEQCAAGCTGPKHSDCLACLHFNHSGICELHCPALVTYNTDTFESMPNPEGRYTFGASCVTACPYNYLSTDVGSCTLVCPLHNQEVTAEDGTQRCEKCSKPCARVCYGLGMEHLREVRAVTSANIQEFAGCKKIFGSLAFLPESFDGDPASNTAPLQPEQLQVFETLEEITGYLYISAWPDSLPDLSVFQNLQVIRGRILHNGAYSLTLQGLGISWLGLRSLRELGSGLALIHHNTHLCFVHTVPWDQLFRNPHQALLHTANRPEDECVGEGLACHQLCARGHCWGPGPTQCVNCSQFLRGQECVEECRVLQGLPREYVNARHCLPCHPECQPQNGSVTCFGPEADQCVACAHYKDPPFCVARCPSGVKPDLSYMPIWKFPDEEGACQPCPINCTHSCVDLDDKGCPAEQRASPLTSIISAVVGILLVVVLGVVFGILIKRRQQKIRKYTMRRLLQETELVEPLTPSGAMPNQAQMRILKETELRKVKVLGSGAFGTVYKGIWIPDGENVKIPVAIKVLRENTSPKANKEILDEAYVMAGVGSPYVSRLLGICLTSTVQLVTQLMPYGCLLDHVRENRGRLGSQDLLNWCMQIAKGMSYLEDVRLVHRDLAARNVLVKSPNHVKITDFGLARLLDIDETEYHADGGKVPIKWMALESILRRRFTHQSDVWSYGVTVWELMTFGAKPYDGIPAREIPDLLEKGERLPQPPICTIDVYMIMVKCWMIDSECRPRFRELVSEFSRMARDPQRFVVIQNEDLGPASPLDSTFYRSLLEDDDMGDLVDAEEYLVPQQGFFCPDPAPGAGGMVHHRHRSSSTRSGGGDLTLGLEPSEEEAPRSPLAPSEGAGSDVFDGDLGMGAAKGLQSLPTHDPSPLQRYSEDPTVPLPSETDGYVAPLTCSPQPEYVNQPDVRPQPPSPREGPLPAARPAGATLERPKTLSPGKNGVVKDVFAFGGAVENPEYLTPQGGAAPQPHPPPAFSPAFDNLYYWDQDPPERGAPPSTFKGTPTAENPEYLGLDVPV

By inhibition is commonly meant the percentage by which the read-out fell short of the control. Take `CC1=CCC[C@H]2[C@](C)(CC3=C(O)C(=O)C=C(NCCS(=O)(=O)O)C3=O)[C@@H](C)CC[C@]12C`: the inhibition in assay [1] is 52%; in assay [2] it was greater than 99%.

For the compound `C[C@H]1CC=C2[C@@H](CCCC2(C)C)[C@]1(C)CC1=C(O)C(=O)C=C(NCCc2ccccc2)C1=O`, in assay [1], the inhibition entry was “inactive”. The compound further returned an inhibition in assay [2] of 76%.

In the case of `CC(C)CCNC1=CC(=O)C(O)=C(C[C@@]2(C)[C@@H]3CCCC(C)(C)C3=CC[C@@H]2C)C1=O`, the inhibition entry in assay [1] and in assay [2] was “inactive” throughout.

As for `CC1=CCC[C@H]2[C@](C)(CC3=C(O)C(=O)C=C(NCCc4ccccc4)C3=O)[C@@H](C)CC[C@]12C`, the inhibition entry in assay [1] and in assay [2] was “inactive” each time.

`CC1=CCC[C@H]2[C@](C)(CC3=C(O)C(=O)C=C(NCCC(C)C)C3=O)[C@@H](C)CC[C@]12C` gave an inhibition in assay [1] of 66%. For the same compound, the inhibition result in assay [2] is “inactive”.

Turning to `CC[C@H](C)CNC1=CC(=O)C(O)=C(C[C@@]2(C)[C@@H]3CCCC(C)(C)C3=CC[C@@H]2C)C1=O`, the inhibition result in assay [1] and in assay [2] was “inactive” each time.

In assay [1], `CC1=CCC[C@H]2[C@](C)(CC3=C(O)C(=O)C=C(NCC(C)C)C3=O)[C@@H](C)CC[C@]12C` gave an inhibition of 59%. The inhibition result in assay [2] is “inactive”.

Turning to `CC[C@H](C)CNC1=CC(=O)C(O)=C(C[C@]2(C)[C@@H](C)CC[C@]3(C)C(C)=CCC[C@@H]23)C1=O`, the inhibition entry in assay [1] and in assay [2] was “inactive” in each case.

Consider `C=C1CCC[C@H]2[C@](C)(CC3=C(O)C(=O)C=C(NC[C@@H](C)CC)C3=O)[C@@H](C)CC[C@]12C`, for which the inhibition result in assay [1] and in assay [2] was “inactive” throughout.
